Assay results as given in US7371780B2, “Use of calphostin C to treat drug-resistant tumor cells” (priority 2003, dated 2008).

Experiments:
Type in all cases: cell-based, human
[1] = test system: MCF-7 cells; assay: Cytoplasmic shrinkage by hematoxylin/eosin staining, MCF-7
Procedure: For staining with hematoxylin and eosin, cells were grown in a six-well culture plate with each well containing a Snowcoat X-Tra™ microscope slide (Surgipath Laboratories, MB) immersed in 3 ml of H21 medium. When the cells reached 50% confluence, they were treated with 0-300 nM calphostin C, followed by a 2 hour exposure of the cultures to fluorescent light as described above. After light activation, the cells were placed in a 37° C. humidified incubator with 5% CO2 and incubated for an additional 22 hours. The cells were then stained with hematoxylin and eosin using a previously described procedure. Briefly, the media was removed from cell cultures and the cells that remained adhered to the slides were washed with PBS, fixed in formalin:acetone (1:2) for 2 min, and allowed to air dry for 10 min. After washing with distilled water, 250 μl of hematoxylin solution (BDH Chemicals, Toronto, ON) was placed on each slide and allowed to incubate with the cells for 5 min. The slides were then washed with distilled water, Scott's tap water (20 g MgSO4.7H2O, 1.5 g NaHCO3 in 1 L H2O), and a final wash with distilled water. The cells on the slides were then stained for 5 min in 250 μl of eosin solution (100 ml of 1% eosin, 10 ml of 1% phyloxine, 4 ml of glacial acetic acid, and 780 ml of 95% ethanol). The cells were then dehydrated by washing three times in 95% ethanol and twice in 100% ethanol. The small slide was then mounted on a standard microscope glass slide, and 10 randomly selected fields were viewed at 100× magnification and photographed. For each concentration of calphostin C, the total number of dead cells in each field was ascertained and expressed relative to the total number of cells in the field.

[2] = test system: MCF-7TAX (paclitaxel-resistant) cells; assay: Clonogenic assay, MCF-7TAX cells; conditions: MCF-7TAX cells; 24 h drug; calphostin C light-activated 2 h
Procedure: The breast cancer cell line MCF-7 (lot HTB-22) was obtained from the American […] (ATCC) and maintained in Dulbecco's H21 medium (MEM) supplemented with 10% Fetal Bovine Serum (FBS) (HyClone, Logan, Utah) in a humidified atmosphere containing 5% CO2 at 37° C. To establish drug resistant cell lines, MCF-7 cells were grown in the presence of either paclitaxel or doxorubicin, beginning at a concentration 1000-fold below that required to kill 50% of the cells (the IC50). The drug concentration was increased 3-fold every two weeks (two passages), with an aliquot of the cells removed for storage in liquid nitrogen before each increase in concentration. Dose escalation continued until all cells died, after which the cells able to tolerate the highest concentration of drug were thawed for subsequent study. In this way, paclitaxel-resistant (MCF-7TAX) and doxorubicin-resistant (MCF-7DOX) cell lines were established. The IC50 for each drug was determined using a clonogenic assay as outlined below. The drug resistant cells were kept in culture in the presence of the maximally tolerated drug dose. Before each experiment, the cell lines were grown for two days in the absence of drug after which fresh medium containing either calphostin C (Sigma Laboratories, Oakville, ON), doxorubicin (Adriamycin PFS®, USP, Mississauga, ON) or paclitaxel (Taxol, Bristol-Myers Squibb, Montreal, QC) was added at the concentrations indicated.
The sensitivity of MCF-7, MCF-7TAX and MCF-7DOX cells to calphostin C, paclitaxel or doxorubicin was determined using a clonogenic assay. Briefly, 2.5×10^5 cells were seeded into 25 cm^2 tissue culture flasks in Dulbecco's H21 medium supplemented with 10% FBS. The cells were allowed to grow overnight, after which the medium was removed and replaced with medium containing varying concentrations of paclitaxel, doxorubicin, or calphostin C (after 2 hours of light exposure to activate the molecule). […] The colonies present in 5 randomly selected fields were then counted by visual inspection. […]

[3] = test system: MCF-7DOX cells; assay: Microscopic cell morphology, MCF-7DOX; conditions: data not shown
Procedure: For microscopic observation, cells were seeded onto standard glass coverslips in 10 cm tissue culture plates with 10 ml of H21 medium and grown for 2 days until 40-50% confluence was obtained. After treatment with paclitaxel, doxorubicin or calphostin C, the cells on the glass coverslips were washed twice with PBS (2.7 mM KCl, 1.0 mM KH2PO4, 137 mM NaCl, 10 mM Na2HPO4, pH 7.4) and stained with acridine orange/ethidium bromide (each at 4 μg/ml in PBS) for 10 min at 37° C.. The coverslips were then washed three times in PBS and mounted onto standard glass slides for morphological evaluation. For propidium iodide (PI) staining, the cells on coverslips were washed twice with PBS and fixed in methanol (cooled to −20° C.) for 20 min. Thirty μl of propidium iodide (PI) staining solution (100 μg/ml PI, 0.1% sodium citrate, 100 μg/ml RNase A and 0.3% Nonidet P-40) were then applied to the coverslips for 5 min. […] The cells were then examined using a Zeiss Axiovert 100 inverted fluorescence microscope. […] For each sample, the number of dead cells was determined by visualization after ethidium bromide staining, whereby only dead cells which have lost membrane integrity allow entry of cell-impermeable ethidium bromide into cells to complex with DNA and induce bright red fluorescence. […] The images were recorded and overlayed using Northern Eclipse software (Empix Imaging Inc., Mississauga, ON).

COc1c(C[C@@H](C)OC(=O)Oc2ccc(O)cc2)c2c3c(C[C@@H](C)OC(=O)c4ccccc4)c(OC)c(=O)c4c(O)cc(OC)c(c5c(OC)cc(O)c(c1=O)c52)c43 [calphostin C]
concentration required for complete cytoplasmic shrinkage [1]: 300 nM
percentage of cells exhibiting cytoplasmic shrinkage ([1]; 25 nM calphostin C, 2 h light, 24 h): 20%
percentage of cells exhibiting cytoplasmic shrinkage ([1]; 50 nM calphostin C): 35%
IC50 [2]: 9.2 nM
concentration giving cytoplasmic vacuolization equal to MCF-7 and MCF-7TAX cells at 50 nM [3]: 300 nM
